What was measured:
60 cancer cell lines = test: NCI-60 one-dose screen (10 μM); format: cell-based; settings: Homo sapiens; one dose of 10 μM, mean over 60 cancer cell lines; read-out: Mean Growth Percent (MGP)
From the text: Additionally, the mean of the growth percentages (MGP) of each compound against all the 60 cancer cell lines is also reported, which is used as one of the selection criteria to continue with tests at five concentration doses.

MOLT-4 = test: cells; settings: Homo sapiens, MOLT-4, 48 h; for CC50: read-out: LC50
RPMI-8226 = test: cells; settings: Homo sapiens, RPMI-8226, 48 h; for CC50: read-out: LC50
A549/ATCC = test: cells; settings: Homo sapiens, A549, 48 h; for CC50: read-out: LC50
EKVX = test: cells; settings: Homo sapiens, 48 h; for CC50: read-out: LC50
HOP-62 = test: cells; settings: Homo sapiens, HOP-62, 48 h; for CC50: read-out: LC50
NCI-H322M = test: cells; settings: Homo sapiens, 48 h; for CC50: read-out: LC50
NCI-H522 = test: cells; settings: Homo sapiens, NCI-H522, 48 h; for CC50: read-out: LC50
COLO 205 = test: cells; settings: Homo sapiens, COLO 205, 48 h; for CC50: read-out: LC50
HCC-2998 = test: cells; settings: Homo sapiens, HCC 2998, 48 h; for CC50: read-out: LC50
HCT-116 = test: cells; settings: Homo sapiens, HCT-116, 48 h; for CC50: read-out: LC50
HCT-15 = test: cells; settings: Homo sapiens, HCT-15, 48 h; for CC50: read-out: LC50
HT29 = test: cells; settings: Homo sapiens, HT-29, 48 h; for CC50: read-out: LC50
KM12 = test: cells; settings: Homo sapiens, KM12, 48 h; for CC50: read-out: LC50
SW-620 = test: cells; settings: Homo sapiens, SW-620, 48 h; for CC50: read-out: LC50
SF-539 = test: cells; settings: Homo sapiens, SF-539, 48 h; for CC50: read-out: LC50, SF-539, 48 h
SNB-19 = test: cells; settings: Homo sapiens, SNB-19, 48 h; for CC50: read-out: LC50
SNB-75 = test: cells; settings: Homo sapiens, SNB-75, 48 h
U251 = test: cells; settings: Homo sapiens, U-251, 48 h; for GI50: U251, 48 h; for CC50: read-out: LC50
MALME-3M = test: cells; settings: Homo sapiens, 48 h; for CC50: read-out: LC50
M14 = test: cells; settings: Homo sapiens, M14, 48 h; for CC50: read-out: LC50
SK-MEL-28 = test: cells; settings: Homo sapiens, SK-MEL-28, 48 h; for CC50: read-out: LC50
UACC-62 = test: cells; settings: Homo sapiens, UACC-62, 48 h; for CC50: read-out: LC50
OVCAR-8 = test: cells; settings: Homo sapiens, OVCAR-8, 48 h; for CC50: read-out: LC50
SK-OV-3 = test: cells; settings: Homo sapiens, SK-OV-3, 48 h; for CC50: read-out: LC50
ACHN = test: cells; settings: Homo sapiens, 48 h; for CC50: read-out: LC50
CAKI-1 = test: cells; settings: Homo sapiens, CAKI-1, 48 h; for CC50: read-out: LC50
RXF 393 = test: cells; settings: Homo sapiens, RXF 393, 48 h
UO-31 = test: cells; settings: Homo sapiens, UO-31, 48 h; for CC50: read-out: LC50
PC-3 = test: cells; settings: Homo sapiens, PC-3, 48 h; for CC50: read-out: LC50
DU-145 = test: cells; settings: Homo sapiens, DU-145, 48 h; for CC50: read-out: LC50
MDA-MB-231/ATCC = test: cells; settings: Homo sapiens, MDA-MB-231, 48 h; for CC50: read-out: LC50
HS 578T = test: cells; settings: Homo sapiens, 48 h; for CC50: read-out: LC50
BT-549 = test: cells; settings: Homo sapiens, BT-549, 48 h; for CC50: read-out: LC50
T-47D = test: cells; settings: Homo sapiens, T47D, 48 h; for CC50: read-out: LC50
MDA-MB-468 = test: cells; settings: Homo sapiens, MDA-MB-468, 48 h; for CC50: read-out: LC50
[1] = Hemolytic activity, spectrophotometric; format: cell-based, human; settings: human, human red blood cells (huRBC), 5% hematocrit, 200 μg/mL, 37 °C

Molecule `Cc1ccc(C2CC(c3ccc(Nc4nc(NCCO)nc(Nc5ccc(Cl)cc5)n4)cc3)=Nc3c(N)nc(N)nc3N2)cc1` (centres unmarked) [33b] has an activity at 10 µM (60 cancer cell lines) of -21.8%, a GI50 (MOLT-4) of 1.38 µM and a CC50 (MOLT-4) of over 100 µM. The GI50 (RPMI-8226) was 1.83 µM, the CC50 (RPMI-8226) was over 100 µM and the GI50 (A549/ATCC) was 1.74 µM. It also gave a CC50 (A549/ATCC) of 6.8 µM, a GI50 (EKVX) of 1.55 µM and a CC50 (EKVX) of 5.71 µM. For the same molecule, the GI50 (HOP-62) was 1.68 µM, the CC50 (HOP-62) was 6.08 µM and the GI50 (NCI-H322M) was 1.59 µM. For the same molecule, the CC50 (NCI-H322M) was 5.42 µM, the GI50 (NCI-H522) was 1.72 µM and the CC50 (NCI-H522) was 7.03 µM. The GI50 (COLO 205) was 1.67 µM, the CC50 (COLO 205) was 6.09 µM and the GI50 (HCC-2998) was 1.55 µM. The CC50 (HCC-2998) was 5.56 µM, the GI50 (HCT-116) was 1.62 µM and the CC50 (HCT-116) was 5.45 µM. For the same molecule, the GI50 (HCT-15) was 1.48 µM, the CC50 (HCT-15) was 5.87 µM and the GI50 (HT29) was 1.78 µM. It also gave a CC50 (HT29) of 7.14 µM, a GI50 (KM12) of 1.97 µM and a CC50 (KM12) of 7.54 µM. For the same molecule, the GI50 (SW-620) was 1.79 µM, the CC50 (SW-620) was 6.12 µM and the GI50 (SF-539) was 1.57 µM. It also gave a CC50 (SF-539) of 5.63 µM, a GI50 (SNB-19) of 1.57 µM and a CC50 (SNB-19) of 5.75 µM. For the same molecule, the GI50 (SNB-75) was 1.62 µM, the CC50 (SNB-75; read-out: LC50) was 6.73 µM and the GI50 (U251) was 1.6 µM. For the same molecule, the CC50 (U251) was 5.65 µM, the GI50 (MALME-3M) was 1.7 µM and the CC50 (MALME-3M) was 6.69 µM. The GI50 (M14) was 1.84 µM, the CC50 (M14) was 5.99 µM and the GI50 (SK-MEL-28) was 1.77 µM. It also gave a CC50 (SK-MEL-28) of 5.65 µM, a GI50 (UACC-62) of 1.82 µM and a CC50 (UACC-62) of 6.33 µM. The GI50 (OVCAR-8) was 1.8 µM, the CC50 (OVCAR-8) was 7.55 µM and the GI50 (SK-OV-3) was 2.69 µM. The CC50 (SK-OV-3) was 25.6 µM, the GI50 (ACHN) was 1.72 µM and the CC50 (ACHN) was 5.56 µM. The GI50 (CAKI-1) was 1.64 µM, the CC50 (CAKI-1) was 5.73 µM and the GI50 (RXF 393) was 1.45 µM. For the same molecule, the GI50 (UO-31) was 1.64 µM, the CC50 (UO-31) was 5.51 µM and the GI50 (PC-3) was 1.74 µM. The CC50 (PC-3) was 7.43 µM, the GI50 (DU-145) was 1.76 µM and the CC50 (DU-145) was 5.77 µM. It also gave a GI50 (MDA-MB-231/ATCC) of 1.67 µM, a CC50 (MDA-MB-231/ATCC) of 6.37 µM and a GI50 (HS 578T) of 1.79 µM. It also gave a CC50 (HS 578T) of over 100 µM, a GI50 (BT-549) of 1.73 µM and a CC50 (BT-549) of 5.69 µM. For the same molecule, the GI50 (T-47D) was 1.67 µM, the CC50 (T-47D) was 8.01 µM and the GI50 (MDA-MB-468) was 1.65 µM. It also gave a CC50 (MDA-MB-468) of 6.09 µM.
With `CN(C)c1nc(NCCNS(=O)(=O)c2ccc(C3=Nc4c(N)nc(N)nc4NC(c4ccc(C(F)(F)F)cc4)C3)cc2)nc(N2CCOCC2)n1` (centres unmarked) [30g] the activity at 10 µM (60 cancer cell lines) was 38.8%, the hemolysis at 24 h, 200 µg/mL [1] was 2.4% and the GI50 (MOLT-4) was 17.3 µM. The CC50 (MOLT-4) was over 100 µM, the GI50 (RPMI-8226) was 11.2 µM and the CC50 (RPMI-8226) was over 100 µM. It also gave a GI50 (A549/ATCC) of 51.3 µM, a CC50 (A549/ATCC) of over 100 µM and a GI50 (EKVX) of 47.2 µM. The CC50 (EKVX) was over 100 µM, the GI50 (HOP-62) was 50.7 µM and the CC50 (HOP-62) was over 100 µM. It also gave a GI50 (NCI-H322M) of 45.4 µM, a CC50 (NCI-H322M) of over 100 µM and a GI50 (NCI-H522) of 51.7 µM. It also gave a CC50 (NCI-H522) of over 100 µM, a GI50 (COLO 205) of 16.5 µM and a CC50 (COLO 205) of 76.2 µM. The GI50 (HCC-2998) was 20.2 µM, the CC50 (HCC-2998) was over 100 µM and the GI50 (HCT-116) was 41.9 µM. For the same molecule, the CC50 (HCT-116) was over 100 µM, the GI50 (HCT-15) was 30.9 µM and the CC50 (HCT-15) was over 100 µM. For the same molecule, the GI50 (HT29) was 19.8 µM, the CC50 (HT29) was over 100 µM and the GI50 (KM12) was 37 µM. For the same molecule, the CC50 (KM12) was over 100 µM, the GI50 (SW-620) was 46.9 µM and the CC50 (SW-620) was over 100 µM. It also gave a GI50 (SF-539) of 22.5 µM, a CC50 (SF-539) of over 100 µM and a GI50 (SNB-19) of 30 µM. It also gave a CC50 (SNB-19) of over 100 µM, a GI50 (U251) of 24.2 µM and a CC50 (U251) of over 100 µM. It also gave a GI50 (MALME-3M) of 19.9 µM, a CC50 (MALME-3M) of over 100 µM and a GI50 (M14) of 22 µM. It also gave a CC50 (M14) of over 100 µM, a GI50 (SK-MEL-28) of 34.1 µM and a CC50 (SK-MEL-28) of over 100 µM. The GI50 (UACC-62) was 16.4 µM, the CC50 (UACC-62) was 81.1 µM and the GI50 (OVCAR-8) was 59.5 µM. For the same molecule, the CC50 (OVCAR-8) was over 100 µM, the GI50 (SK-OV-3) was 69.7 µM and the CC50 (SK-OV-3) was over 100 µM. For the same molecule, the GI50 (ACHN) was 64.4 µM, the CC50 (ACHN) was over 100 µM and the GI50 (CAKI-1) was 25.9 µM. It also gave a CC50 (CAKI-1) of over 100 µM, a GI50 (RXF 393) of 10.3 µM and a CC50 (RXF 393; read-out: LC50) of over 100 µM. For the same molecule, the GI50 (UO-31) was 100 µM, the CC50 (UO-31) was over 100 µM and the GI50 (PC-3) was 24.6 µM. It also gave a CC50 (PC-3) of over 100 µM, a GI50 (DU-145) of 72 µM and a CC50 (DU-145) of over 100 µM. For the same molecule, the GI50 (MDA-MB-231/ATCC) was 16.9 µM, the CC50 (MDA-MB-231/ATCC) was over 100 µM and the GI50 (HS 578T) was 19.2 µM. For the same molecule, the CC50 (HS 578T) was over 100 µM, the GI50 (BT-549) was 13.8 µM and the CC50 (BT-549) was 73.1 µM. It also gave a GI50 (T-47D) of 21.3 µM, a CC50 (T-47D) of over 100 µM and a GI50 (MDA-MB-468) of 13.7 µM. The CC50 (MDA-MB-468) was 69.5 µM.

— article PMC11012124, “Synthesis of Novel Triazine-Based Chalcones and 8,9-dihydro-7H-pyrimido[4,5-b][1,4]diazepines as Potential Leads in the Search of Anticancer, Antibacterial and Antifungal Agents” (International Journal of Molecular Sciences, 2024)
